Measured values from publication PMC8111326 (Journal of Molecular Endocrinology, 2021).
Structures can show the parent of a compound that is named as a salt. Where two headings read alike, the source gives them in different places.

Experiments:
[1] = test system: [Ca2+]i in HEK293 cells
[2] = test system: HEK293 cells
[3] = test system: transmitter release; settings: co-administered with calcium chelator BAPTA/AM; ref Di Virgilio et al. 1988; cited from earlier work
[4] = test system: α-MSH-induced [Ca2+]i in HEK293 cells; settings: cited from earlier work

For `C[C@H](CCC(=O)O)C[C@H](C)C[C@H](C)C(=O)/C=C(\O)[C@H](C)C[C@H](C)C/C=C/[C@@H](C)[C@@H](O)[C@@H](C)[C@@H](O)C[C@@H]1CC[C@@](C)([C@H]2CC[C@@](C)([C@@H](C)O)O2)O1` [ionomycin, ionomycin calcium salt], which “ionomycin effect on calcium signal” value ([1]; presence or absence of probenecid, ionomycin 10 µL of 0.33 mM stock in DMSO) is on record?
The value was “rapid increase in calcium signal”.

For `CCCN(CCC)S(=O)(=O)c1ccc(C(=O)O)cc1` [probenecid], which “retention of Fura-2 in cells” value ([2]; probenecid 1 mM vs 2.5 mM) is on record?
The value was 1 mM probenecid worked as efficiently as 2.5 mM for Fura-2 retention.

And the “retention of Fura-2/AM and Fura-2 in cells” value ([2]; probenecid 2.5 mM, three independent experiments)?
The value was “retains Fura-2/AM and Fura-2 in HEK293 cell monolayers”.

And the “effect on transmitter release” value [3]?
The value was “profound and prolonged attenuation of transmitter release”.

What about the “interference with EGTA chelation of calcium” value ([1]; probenecid 1 mM in CLB-HG, Ca2+-free buffer-HG, -Ward or -Ion Optix, Supplementary Fig. 7) of the same compound?
Its value is “interfered with EGTA chelation of calcium”.

And the “interference with EGTA chelation of calcium” value ([1]; probenecid 0.5–2.5 mM, pluronic acid, Supplementary Fig. 5)?
Its value is “interferes with EGTA chelation of calcium”.

Which “effect on α-MSH-induced [Ca2+]i” value [4] does the source give for cholera toxin here?
The value was “significantly attenuated”.

Which “EGTA chelation of calcium in specific Rmin wells” value ([1]; EGTA 5.5 mM final, cells co-loaded with Fura-2/AM and 10 µM EGTA in DMEM, probenecid 1 mM in esterase buffer, three independent experiments) does the source give for “ethylene glycol-bis (β-aminoethyl ether)-N,N,N′,N′-tetraacetic acid [EGTA]” here?
The value was “chelated calcium in the presence of either Ca^2+-free-HG buffer or Ca^2+-free-Ward buffer”.

What about the “effect of EGTA injection on basal calcium signal, optimised assay conditions (with probenecid)” value ([1]; cell monolayers, EGTA 10 µL of 165 mM stock) of the same compound?
Its value is “did not reduce basal calcium signal”.

What about the “EGTA effect on fluorescence ratio (340/380), specific Rmin wells” value ([1]; cells depleted of calcium by EGTA prior to imaging, calcium-free buffer) of the same compound?
Its value is “rapid small decrease in fluorescence 340/380 ratio”.

And the “EGTA effect on fluorescence ratio (340/380), with probenecid” value ([1]; in the presence of probenecid)?
Its value is “either has no effect on fluorescence ratio or increases the fluorescence ratio”.
